The values that follow come from patent US20130018062A1, “Pain therapy with metabolism blocked antifolates” (priority 2011, published 2013).

Data set [1] deals with patients with Rheumatoid Arthritis. Particulars: compared with methotrexate; cited from earlier work.
The next data set has as its system SR (Leukemia). The data set can be described thus: Growth inhibition of human tumor cells in culture (NCI). The class given is cell-based. The note with it: logarithmic value. From the text:
(§1) The preceding data collected at the National Cancer Institute summarize the ability of M-Trex to inhibit 50% of the growth of selected tumor cells in culture. The values are expressed as Log10 GI50 values all of which are lower than 10^−8M. In the same table a comparison is made of the respective values of TGI (Total Growth Inhibition) for M-Trex and MTX. […] In addition, the Log10 GI50 values of M-Trex was lower than −8.00 for the following cell lines: NSCLC, A549/ATCC and NCI H23; Colon Cancer, HCT 116, HCT 29 and SW 620; CNS Cancer, SF 268; Melanoma M 14 and UACC 62; Ovarian Cancer, OVCAR-8; Renal Cancer, ACHN, CAKI-1, SN 12C, and UO 31; Prostate Cancer, PC 3 and Breast cancer, MDA-MB-435 and MDA-N. The MG_MID value of MTX for all 49 human tumor cell lines evaluated at NCI-DTP program was −7.05. […] The tumors and sarcomas are solid while leukemia and lymphoma are liquid tumors.

In a further data set the test system is MOLT-4 (Leukemia). The description is as above. The class given is cell-based. The note with it: logarithmic value.
Source text: as §1

A further data set deals with CCRF-CEM (Leukemia). The data set is described as above. Type of data set: cell-based. Particulars: logarithmic value.
Source text: as §1

In a further data set the test system is RPMI 8226 (Leukemia). Described as above. Type of data set: cell-based. Particulars: logarithmic value.
Source text: as §1

The next data set has as its system K562 (Leukemia). The description is as above. Type of data set: cell-based. Particulars: logarithmic value.
Source text: as §1

In another data set the test system is SF 539 (CNS Cancer). Described as above. Type of data set: cell-based. Particulars: logarithmic value.
Source text: as §1

Data set [2] has as its system Human HCT-8 Colon Xenograft. The data set can be described thus: Antitumor activity in nude mice bearing human HCT-8 colon xenograft (Example-4). The class given is in vivo. Particulars: i.v. push daily × 5 at maximum tolerated dose (M-Trex 4.0, MTX 1.0 mg/kg/day). From the text: There are three general accepted methods for the evaluation of Pain in patients suffering from a number of diseases. They are Visual Analog Scale (VAS); Numeric rating Scale (NRS) and Verbal Categorical Rating Scale […]. Of these three assessment methods VAS is considered to be most reliable in a majority of cases to evaluate and quantify the magnitude of the perception of Pain. Clinical trials conducted by Castaneda and Nair used VAS to assess pain intensity in RA patients receiving 10-DAAM in one trial [G. Alarcon, O. Castaneda, W. J. Koopman, C. L. Krumdieck, and M. G. Nair. U.S. Pat. No. 5,030,634 (1991)] and M-Trex (CH-1504) in another trial conducted separately. Almost all cases of cancer Pain is due to tissue inflammation, tissue compression and tissue damage secondary to rapid proliferation of cells. Therefore any therapeutic intervention that shrinks proliferating tissues can bring about significant reduction in Pain. Shown below is the efficacy of M-Trex in shrinking human colon cancer transplanted and growing in nude mice.

A short description of data set [3]: Toxicity (maximum tolerated dose, weight loss) in nude mice bearing HCT-8 xenograft. Type of data set: in vivo. Particulars: i.v. push daily × 5 in nude mice.
A further data set relates to Allergic Rabbits. The note with it: allergen induced; cited from earlier work.
In a further data set the test system is human tumor cell lines. The note with it: all 49 human tumor cell lines evaluated at NCI-DTP program; cited from earlier work.

For `Nc1nc(N)c2nc(CCc3ccc(C(=O)N[C@@H](CCC(=O)O)C(=O)O)cc3)cnc2n1` [10-DAAM, 10-Deazaaminopterin], the “Pain reduction (in words)” value in data set [1] is listed as “very effective in reducing Pain”.
Consider `CN(Cc1cnc2nc(N)nc(N)c2n1)c1ccc(C(=O)N[C@@H](CCC(=O)O)C(=O)O)cc1` [MTX, methotrexate, reference compound], for which the “TGI (Total Growth Inhibition)” value is listed as −3.50 in the data set with SR (Leukemia); −3.55 in the data set with MOLT-4 (Leukemia); −3.77 with CCRF-CEM (Leukemia); −3.66 in the data set with RPMI 8226 (Leukemia); −3.30 in the data set with K562 (Leukemia); −3.66 with SF 539 (CNS Cancer). Moreover, the “MTGI, Maximum Tumor Growth Inhibition (% of control)” value in data set [2] (nude mice, HCT-8 xenograft) was found to be 30.0 ± 9.0%. For the same compound, the “Tumor doubling time, treated/control (%)” value in data set [2] (nude mice, HCT-8 xenograft) is on record as 176.92%. The “TD, Tumor Doubling Time” value in [2] (control 2.6 ± 0.8 days) turned out to be 4.6 ± 0.6 days. In addition, in data set [3], the “Maximum Tolerated dose” value is given as “MTX (1.0 mg/kg/day)^33”. Moreover, the “Asthmatic Response Early” value in the data set on Allergic Rabbits is 29. For the same compound, in the data set on Allergic Rabbits, the “Asthmatic Response Late” value is on record as 37. Moreover, in the data set on Allergic Rabbits, the “BHR (Bronchial Hyper-Responsiveness)” value is 32. The MG_MID value in the data set on human tumor cell lines was −7.05.
For `Cn1c(=O)c2[nH]cnc2n(C)c1=O` [Theophylline], in the data set on Allergic Rabbits, the “Asthmatic Response Early” value is listed as 45, the “Asthmatic Response Late” value was 49 and the “BHR (Bronchial Hyper-Responsiveness)” value is 39.
